Measured values taken from ChEMBL document CHEMBL1944630, “Indomethacin Analogues that Enhance Doxorubicin Cytotoxicity in Multidrug Resistant Cells without Cox Inhibitory Activity” (ACS Med Chem Lett, 2011).
The source made the active and inactive calls. No cut-off for these calls is given here.

What was measured:
[1] = system: T98G; assay: Cytotoxicity against multidrug-resistant human T98G cells expressing MRP-1 at 50 uM after 3 days by crystal violet staining analysis; type: cell-based; details: 72 h
[2] = biological target: T1, Prostaglandin G/H synthase 2 (Homo sapiens, UniProt P35354); assay: Inhibition of COX2
T1 sequence (P35354 whole entry): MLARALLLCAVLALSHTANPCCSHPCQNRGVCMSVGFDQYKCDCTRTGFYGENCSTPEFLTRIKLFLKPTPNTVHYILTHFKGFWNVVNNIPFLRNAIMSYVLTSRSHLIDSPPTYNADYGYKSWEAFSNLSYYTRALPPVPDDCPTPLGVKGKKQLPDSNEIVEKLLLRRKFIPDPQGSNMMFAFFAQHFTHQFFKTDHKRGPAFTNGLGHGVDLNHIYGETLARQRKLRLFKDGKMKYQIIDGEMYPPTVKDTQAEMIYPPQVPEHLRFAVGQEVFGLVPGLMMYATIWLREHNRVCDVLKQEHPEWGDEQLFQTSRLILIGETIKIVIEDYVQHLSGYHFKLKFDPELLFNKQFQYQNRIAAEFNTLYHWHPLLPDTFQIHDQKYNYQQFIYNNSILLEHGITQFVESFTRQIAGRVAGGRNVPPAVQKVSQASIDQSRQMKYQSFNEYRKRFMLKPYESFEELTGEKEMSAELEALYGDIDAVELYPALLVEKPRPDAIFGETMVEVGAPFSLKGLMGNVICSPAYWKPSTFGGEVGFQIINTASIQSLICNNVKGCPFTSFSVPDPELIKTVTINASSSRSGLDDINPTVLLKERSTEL

[3] = system: T98G; assay: Potentiation of doxorubicin-induced cytotoxicity against multidrug-resistant human T98G cells expressing MRP-1 at 50 uM pretreated for 2 hrs prior addition of doxorubicin measured after 3 days by crystal violet staining analysis; type: functional, cell-based
[4] = biological target: T2, Prostaglandin G/H synthase 1 (Homo sapiens, UniProt P23219); assay: Inhibition of COX1
T2 sequence (P23219 whole entry): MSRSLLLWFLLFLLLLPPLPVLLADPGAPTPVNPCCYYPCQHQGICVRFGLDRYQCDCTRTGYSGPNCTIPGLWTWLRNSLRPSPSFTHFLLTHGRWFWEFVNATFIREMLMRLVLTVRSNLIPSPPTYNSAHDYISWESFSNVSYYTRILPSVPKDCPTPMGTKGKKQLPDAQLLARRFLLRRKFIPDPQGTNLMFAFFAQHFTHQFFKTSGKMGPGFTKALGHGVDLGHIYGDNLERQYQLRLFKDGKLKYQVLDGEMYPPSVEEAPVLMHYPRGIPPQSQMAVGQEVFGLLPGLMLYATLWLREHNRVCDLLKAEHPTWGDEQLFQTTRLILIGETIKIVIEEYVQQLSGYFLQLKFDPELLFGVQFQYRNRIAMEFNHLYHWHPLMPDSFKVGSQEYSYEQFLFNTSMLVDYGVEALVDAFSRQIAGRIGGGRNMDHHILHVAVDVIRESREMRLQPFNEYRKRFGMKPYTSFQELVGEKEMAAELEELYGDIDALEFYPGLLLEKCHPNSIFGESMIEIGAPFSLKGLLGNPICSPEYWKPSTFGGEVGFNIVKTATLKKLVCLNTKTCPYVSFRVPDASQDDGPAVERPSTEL

[5] = biological target: T2, Prostaglandin G/H synthase 1; assay: Inhibition of COX1 at 100 uM

`O=C(O)Cc1c(-c2ccccc2)n(C(=O)c2ccc(Cl)cc2)c2ccccc12` was tested. Which Activity [1] did it give?
Its Activity is “Non-toxic”.

What about the IC50 [2] of the same molecule?
Its IC50 is > 400 µM.

What about the Activity [3] of the same molecule?
The Activity was “Active”.

What about the IC50 [4] of the same molecule?
The IC50 was > 400 µM.

And the inhibition [5]?
The inhibition was < 0%.

For `CCc1c(CC(=O)O)c2ccccc2n1C(=O)c1ccc(Cl)cc1`, which Activity [1] is on record?
Its Activity is “Non-toxic”.

And the IC50 [2]?
Its IC50 is > 400 µM.

And the Activity [3]?
Its Activity is “Active”.

And the IC50 [4]?
The IC50 was > 400 µM.

And the inhibition [5]?
The inhibition was < 0%.

`CC(=O)Oc1ccccc1C(=O)O` was tested. Which inhibition [5] did it give?
Its inhibition is 38%.

Which results are given for `Cc1c(CC(=O)O)c2ccccc2n1C(=O)c1ccc(Cl)cc1`?
IC50 [2]: 39 µM; IC50 [4]: 0.01 µM; inhibition [5]: 79%
